In ChEMBL document CHEMBL3132788, “A new route towards fimbrolide analogues: importance of the exomethylene motif in LuxR dependent quorum sensing inhibition” (Medchemcomm, 2013):
Calls of active or inactive are those of the source. No cut-off for these calls is given here.

Assays:
[1] = system: Escherichia coli; test: Agonist activity at quorum sensing system in Escherichia coli NM522 carrying Vibrio fischeri luxR and luxICDBE promoter region assessed as bioluminescence production after 4 to 5 hrs by luminometer
[2] = system: Escherichia coli; test: (§1) Antagonist activity at quorum sensing system in Escherichia coli NM522 carrying Vibrio fischeri luxR and luxICDBE promoter region assessed as inhibition of 3-oxo-C6HSL induced bioluminescence production after 4 to 5 hrs by luminometer
[3] = as §1
[4] = system: Escherichia coli; test: Growth inhibition of Escherichia coli NM522 carrying Vibrio fischeri luxR and luxICDBE promoter region at 20 uM to 20 mM after overnight incubation by disk diffusion assay; format: organism-based; details: in vivo

For CCCC(O)C1=CCOC1=O (centres undefined), the Activity [1] was “inactive” and the inhibition [2] was “inactive”.
With C=C1C=C(C(O)CCCCC)C(=O)O1 (centres undefined) the Activity [1] was “inactive” and the IC50 [3] was 8 µM.
For CCCC(O)C1=C/C(=C/Br)OC1=O (centres undefined), the Activity [1] was “inactive” and the IC50 [3] was 14 µM.
For C=C1C=C(C(O)CCC)C(=O)O1 (centres undefined), the Activity [1] was “inactive” and the IC50 [3] was 52 µM.
With C=C1C=C(CCCCCC)C(=O)O1 the Activity [1] was “inactive” and the IC50 [3] was > 200 µM.
With CCCCCCC1=C/C(=C/Br)OC1=O the Activity [1] was “inactive” and the IC50 [3] was 3 µM.
In the case of C=C1C=C(CCCC)C(=O)O1, the Activity [1] is reported as “inactive” and the IC50 [3] is reported as > 200 µM.
For CCCCC1=C(Br)/C(=C/Br)OC1=O, the IC50 [3] was 45 µM.
In the case of C=C1C=C(C(O)CCCCCCC)C(=O)O1 (centres undefined), the Activity [1] is reported as “inactive” and the IC50 [3] is reported as 15 µM.
For CCCCC1=CCOC1=O, the Activity [1] was “inactive” and the IC50 [3] was > 200 µM.
For CCCCCC(O)C1=CCOC1=O (centres undefined), the Activity [1] was “inactive” and the inhibition [2] was “inactive”.
In the case of CCCCCCCC(O)C1=CCOC1=O (centres undefined), the Activity [1] is reported as “inactive” and the inhibition [2] is reported as “inactive”.
In the case of CCCCCCC1=CCOC1=O, the Activity [1] is reported as “inactive” and the IC50 [3] is reported as > 200 µM.
For CCCC(O)C1=C/C(=C\Br)OC1=O (centres undefined), the Activity [1] was “inactive” and the IC50 [3] was 18 µM.
In the case of CCCCC1=C/C(=C/Br)OC1=O, the Activity [4] is reported as “Non-toxic”, the Activity [1] is reported as “inactive” and the IC50 [3] is reported as 0.6 µM.
For CCCCCCCC(O)C1=C/C(=C/Br)OC1=O (centres undefined), the Activity [1] was “inactive” and the IC50 [3] was 25 µM.
With CCCCCC(O)C1=C/C(=C/Br)OC1=O (centres undefined) the Activity [1] was “inactive” and the IC50 [3] was 6 µM.
